Results reported in US20110269763A1, “CRTH2 receptor ligands for medicinal uses” (7TM Pharma A/S, priority 2004, published 2011).

Experiments:
human CRTH2 [1] = target: T1, human CRTH2 (Homo sapiens, UniProt Q9Y5Y4, V204A); assay: Receptor binding assay: [3H]PGD2 competition binding on whole COS-7 cells transiently transfected with CRTH2 (also stable HEK293 cells); set-up: expressed in transfected cells; host or cells: COS-7 (transient, calcium phosphate)
T1 sequence (Q9Y5Y4 1-395 V204A): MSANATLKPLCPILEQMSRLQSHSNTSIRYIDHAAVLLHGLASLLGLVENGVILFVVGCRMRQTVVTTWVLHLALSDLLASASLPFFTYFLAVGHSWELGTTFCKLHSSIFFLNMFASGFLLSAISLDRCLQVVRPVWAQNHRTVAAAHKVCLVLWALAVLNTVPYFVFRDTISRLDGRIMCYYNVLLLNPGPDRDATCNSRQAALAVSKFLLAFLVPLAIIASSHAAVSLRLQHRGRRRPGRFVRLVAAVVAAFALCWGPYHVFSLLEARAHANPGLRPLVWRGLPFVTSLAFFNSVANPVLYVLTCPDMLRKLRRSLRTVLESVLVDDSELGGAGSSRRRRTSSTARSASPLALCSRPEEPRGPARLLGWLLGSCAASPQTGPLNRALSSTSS
Summary of the method: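 Whole COS-7 cells transiently transfected with human CRTH2 (calcium phosphate), or stable HEK293 cells, competed against 0.1 nM [3H]PGD2 in HBSS/10 mM HEPES with 1% DMSO, 3 h at 4 °C. Nonspecific binding with 10 μM PGD2; scintillation counting, duplicates. IC50 from curve fitting.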

human CRTH2 [2] = target: T1, human CRTH2; assay: Functional antagonist BRET assay on HEK293 cells stably expressing human CRTH2-Rluc and GFP2-β-arr2; assay type: cell-based; set-up: expressed in transfected cells; conditions: read-out: Antag. IC50
Summary of the method: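 Cells (2×10^6/mL in D-PBS with glucose) were preincubated 15 min with antagonist at 1% DMSO, then agonist and DeepBlueC were co-injected. Emission at 400 and 515 nm was read 5 s later, and the mBRET ratio (515/400 nm) was used to derive IC50 from concentration–response curves.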

[3] = competition with 0.1 nM [3H]PGD2, whole cells, 3 h at 4° C.
[4] = BRET, antagonist incubated 15 minutes prior to agonist
[5] = receptor binding assay, Table 3
[6] = functional antagonist assay, Table 3

Compound	IC50 (human CRTH2 [1]; [3]) [nM]	IC50 (human CRTH2 [2]; [4]) [nM]	IC50 (human CRTH2 [1]; [5]) [nM]	IC50 (human CRTH2 [2]; [6]) [nM]
CCc1cccc(CC)c1-n1cc(C(=O)c2cc(Br)ccc2OCC(=O)O)cn1 [D70, {4-Bromo-2-[1-(2,6-diethyl-phenyl)-1H-pyrazole-4-carbonyl]phenoxy}acetic acid]	< 500	< 500		
Cc1cccc(C)c1-n1cc(C(=O)c2cc(Br)ccc2OCC(=O)O)cn1 [D71, {4-Bromo-2-[1-(2,6-dimethylphenyl)-1H-pyrazole-4-carbonyl]phenoxy}acetic acid]	< 500	< 500		
CCc1cccc(C)c1-n1cc(C(=O)c2cc(Br)ccc2OCC(=O)O)cn1 [D72, {4-Bromo-2-[1-(2-ethyl-6-methylphenyl)-1H-pyrazole-4-carbonyl]phenoxy}acetic acid]	< 500	< 500		
CC(C)c1ccccc1-n1cc(C(=O)c2cc(Br)ccc2OCC(=O)O)cn1 [D73, {4-Bromo-2-[1-(2-isopropylphenyl)-1H-pyrazole-4-carbonyl]phenoxy}acetic acid]	< 500	< 500		
CCOc1ccc(OCC(=O)O)c(C(=O)c2cnn(-c3ccccc3)c2)c1 [D74, [4-Ethoxy-2-(1-phenyl-1H-pyrazole-4-carbonyl)phenoxy]acetic acid]	500 to 5000	> 5000		
CCCCc1ccc(OCC(=O)O)c(C(=O)c2cnn(-c3ccccc3)c2)c1 [D75, [4-Butyl-2-(1-phenyl-1H-pyrazole-4-carbonyl)phenoxy]acetic acid]	< 500	> 5000		
Cc1cccc(Cl)c1-n1cc(C(=O)c2cc(Br)ccc2OCC(=O)O)cn1 [D76, {4-Bromo-2-[1-(2-chloro-6-methylphenyl)-1H-pyrazole-4-carbonyl]phenoxy}acetic acid]	< 500	< 500		
Cc1cccc(C)c1-n1cc(C(=O)c2cc(Br)ccc2OC(C)C(=O)O)cn1 (stereo not shown) [D77, 2-{4-Bromo-2-[1-(2,6-dimethylphenyl)-1H-pyrazole-4-carbonyl]phenoxy}propionic acid]	< 500	< 500		
CCc1cccc(CC)c1-n1cc(C(=O)c2cc(Br)ccc2OC(C)C(=O)O)cn1 (stereo not shown) [D78, 2-{4-Bromo-2-[1-(2,6-diethylphenyl)-1H-pyrazole-4-carbonyl]phenoxy}propionic acid]	< 500	< 500		
CC(Oc1ccc(Br)cc1C(=O)c1cnn(-c2ccccc2C(C)C)c1)C(=O)O (stereo not shown) [D79, 2-{4-Bromo-2-[1-(2-isopropylphenyl)-1H-pyrazole-4-carbonyl]phenoxy}propionic acid]	< 500	< 500		
O=C(O)COc1ccc(Br)cc1C(=O)c1cnn(-c2c(Cl)cncc2Cl)c1 [D80, {4-Bromo-2-[1-(3,5-dichloropyridin-4-yl)-1H-pyrazole-4-carbonyl]phenoxy}acetic acid]	< 500	< 500		
O=C(O)COc1ccc(Br)cc1C(=O)c1cnn(-c2ccc(C(F)(F)F)cc2)c1 [D81, {4-Bromo-2-[1-(4-trifluoromethylphenyl)-1H-pyrazole-4-carbonyl]phenoxy}acetic acid]	< 500	< 500		
O=C(O)COc1ccc(Br)cc1C(=O)c1cnn(-c2cccc3ccccc23)c1 [D82, [4-Bromo-2-(1-naphthalen-1-yl-1H-pyrazole-4-carbonyl)phenoxy]acetic acid]	< 500	< 500		
O=C(O)COc1ccc(Br)cc1-c1coc(-c2ccccc2)n1 [D83, [4-Bromo-2-(2-phenyloxazol-4-yl)phenoxy]acetic acid]	< 500	> 5000		
COc1ccc(-c2nc(-c3cc(Br)ccc3OCC(=O)O)co2)cc1 [D84, {4-Bromo-2-[2-(4-methoxyphenyl)oxazol-4-yl]phenoxy}acetic acid]	< 500	500 to 5000		
O=C(O)COc1ccc(Br)cc1-c1coc(-c2ccc(Cl)cc2)n1 [D85, {4-Bromo-2-[2-(4-chlorophenyl)oxazol-4-yl]phenoxy}acetic acid]	< 500	> 5000		

Compound	IC50 (human CRTH2 [1]; [3]) [nM]	IC50 (human CRTH2 [2]; [4]) [nM]	IC50 (human CRTH2 [1]; [5]) [nM]	IC50 (human CRTH2 [2]; [6]) [nM]
COc1cccc(-c2nc(-c3cc(Br)ccc3OCC(=O)O)co2)c1 [D86, {4-Bromo-2-[2-(3-methoxyphenyl)oxazol-4-yl]phenoxy}acetic acid]	< 500	< 500		
CCOc1ccc(-c2nc(-c3cc(Br)ccc3OCC(=O)O)co2)cc1 [D87, {4-Bromo-2-[2-(4-ethoxyphenyl)oxazol-4-yl]phenoxy}acetic acid]	< 500	> 5000		
O=C(O)COc1ccc(Br)cc1-c1coc(Cc2ccccc2)n1 [D88, [2-(2-Benzyloxazol-4-yl)-4-bromophenoxy]acetic acid]	< 500	< 500		
COc1cccc(Cc2nc(-c3cc(Br)ccc3OCC(=O)O)co2)c1 [D89, {4-Bromo-2-[2-(3-methoxybenzyl)oxazol-4-yl]phenoxy}acetic acid]	< 500	< 500		
O=C(O)COc1ccc(Br)cc1-c1coc(Cc2ccc(F)cc2Cl)n1 [D90, {4-Bromo-2-[2-(2-chloro-4-fluorobenzyl)oxazol-4-yl]phenoxy}acetic acid]	< 500	< 500		
O=C(O)COc1ccc(Br)cc1-c1coc(Cc2c(Cl)cccc2Cl)n1 [D91, {4-Bromo-2-[2-(2,6-dichlorobenzyl)oxazol-4-yl]phenoxy}acetic acid]	< 500	< 500		
COc1ccc(Cc2nc(-c3cc(Br)ccc3OCC(=O)O)co2)cc1 [D92, {4-Bromo-2-[2-(4-methoxybenzyl)oxazol-4-yl]phenoxy}acetic acid]	< 500	< 500		
O=C(O)COc1ccc(Br)cc1-c1csc(-c2ccccc2)n1 [D93, [4-Bromo-2-(2-phenylthiazol-4-yl)phenoxy]acetic acid]	< 500	< 500		
O=C(O)COc1ccc(Br)cc1-c1csc(Cc2ccc(Cl)cc2)n1 [D94, {4-Bromo-2-[2-(4-chlorobenzyl)thiazol-4-yl]phenoxy}acetic acid]	< 500	< 500		
O=C(O)COc1ccc(Br)cc1C(=O)c1cnc(-c2ccccc2)s1 [D95, [4-Bromo-2-(2-phenylthiazole-5-carbonyl)phenoxy]acetic acid]	< 500	< 500		
O=C(O)COc1ccc(Br)cc1-c1nc(-c2ccccc2)co1 [D96, [4-Bromo-2-(4-phenyl-oxazol-2-yl)-phenoxy]acetic acid]	< 500	500 to 5000		
O=C(O)COc1ccc(Br)cc1C(=O)c1cc(-c2ccccc2)no1 [D97, [4-Bromo-2-(3-phenylisoxazole-5-carbonyl)phenoxy]acetic acid]	< 500	< 500		
O=C(O)COc1ccc(Br)cc1-c1nc(-c2ccccc2)no1 [D99, [4-Bromo-2-(3-phenyl-[1,2,4]oxadiazol-5-yl)phenoxy]acetic acid]			< 500	< 500
O=C(O)COc1ccc(Br)cc1-c1nc(-c2ccc(F)cc2)no1 [D100, {4-Bromo-2-[3-(4-fluoro-phenyl)-[1,2,4]oxadiazol-5-yl]phenoxy}acetic acid]			< 500	< 500
COc1ccc(-c2noc(-c3cc(Br)ccc3OCC(=O)O)n2)cc1 [D101, {4-Bromo-2-[3-(4-methoxy-phenyl)-[1,2,4]oxadiazol-5-yl]phenoxy}acetic acid]			< 500	< 500
O=C(O)COc1ccc(Br)cc1-c1nc(-c2ccc(Cl)cc2)no1 [D102, {4-Bromo-2-[3-(4-chlorophenyl)-[1,2,4]oxadiazol-5-yl]phenoxy}acetic acid]			< 500	< 500
